# Source: PubChem BioAssay AID1963860 (Molecular Pharmacology Branch, DTP, NCI, 2024)
# System: CN0375-F725-PDC KRAS spheroid viability
# Assay: Anticancer human tumor CN0375-F725-PDC patient-derived colon carcinoma cell line growth inhibition [KRAS2]
# Conditions: spheroids with HUVEC and MSC; for IC50: curve of first compound; for viability, T/C: stronger effect = lower value
# Summary of the method: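 Combination screen of spheroid viability in tumor-cell co-cultures with endothelial (HUVEC) and mesenchymal stem cell stroma. Each agent was tested in half-log dilutions, topping at clinical Cmax or at 10 microM without a known Cmax.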
# [1] = second compound 0.1 µM, first compound 0.0316 µM
# [2] = second compound 0.1 µM, first compound 0.1 µM
# [3] = second compound 0.1 µM, first compound 0.316 µM
# [4] = second compound 0.1 µM, first compound 1 µM
# [5] = second compound 0.1 µM, first compound 3.16 µM
# [6] = second compound 0.316 µM, first compound 0.0316 µM
# [7] = second compound 0.316 µM, first compound 0.1 µM
# [8] = second compound 0.316 µM, first compound 0.316 µM
# [9] = second compound 0.316 µM, first compound 1 µM
# [10] = second compound 0.316 µM, first compound 3.16 µM
# [11] = second compound 1 µM, first compound 0.0316 µM
# [12] = second compound 1 µM, first compound 0.1 µM
# [13] = second compound 1 µM, first compound 0.316 µM
# [14] = second compound 1 µM, first compound 1 µM
# [15] = second compound 1 µM, first compound 3.16 µM
# [16] = second compound 3.16 µM, first compound 0.0316 µM
# [17] = second compound 3.16 µM, first compound 0.1 µM
# [18] = second compound 3.16 µM, first compound 0.316 µM
# [19] = second compound 3.16 µM, first compound 1 µM
# [20] = second compound 3.16 µM, first compound 3.16 µM
# [21] = second compound 10 µM, first compound 0.0316 µM
# [22] = second compound 10 µM, first compound 0.1 µM
# [23] = second compound 10 µM, first compound 0.316 µM
# [24] = second compound 10 µM, first compound 1 µM
# [25] = second compound 10 µM, first compound 3.16 µM
# [26] = second compound 0.1 µM, first compound 10 µM
# [27] = second compound 0.316 µM, first compound 10 µM
# [28] = second compound 1 µM, first compound 10 µM
# [29] = second compound 3.16 µM, first compound 10 µM
# [30] = second compound 10 µM, first compound 10 µM
# 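Note: spheroids exposed to agents for 7 days.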
Compound,IC50 (second compound 0.1 µM) [µM],IC50 (second compound 0.316 µM) [µM],IC50 (second compound 1 µM) [µM],IC50 (second compound 3.16 µM) [µM],IC50 (second compound 10 µM) [µM],"viability, T/C [1] [%]","viability, T/C [2] [%]","viability, T/C [3] [%]","viability, T/C [4] [%]","viability, T/C [5] [%]","viability, T/C [6] [%]","viability, T/C [7] [%]","viability, T/C [8] [%]","viability, T/C [9] [%]","viability, T/C [10] [%]","viability, T/C [11] [%]","viability, T/C [12] [%]","viability, T/C [13] [%]","viability, T/C [14] [%]","viability, T/C [15] [%]",also measured
CC1COCCN1c1cc(-c2ccnn2C)c2ccnc(-c3ccn[nH]3)c2n1 (stereo not given) + C=CC(=O)N1CCN(c2nc(=O)n(-c3c(C)ccnc3C(C)C)c3nc(-c4c(O)cccc4F)c(F)cc23)C(C)C1,> 3.16,> 3.16,> 3.16,> 3.16,1.78,99.4,88.8,81.6,65.5,55.8,95.3,80,78.2,65.5,52.6,103,89,80.5,65.6,53.8,"viability, T/C (second compound 0.1 µM, first compound 0.01 µM): 107%; viability, T/C (second compound 0.316 µM, first compound 0.01 µM): 104%; viability, T/C (second compound 1 µM, first compound 0.01 µM): 100%; viability, T/C (second compound 3.16 µM, first compound 0.01 µM): 101%; viability, T/C [16]: 107%; viability, T/C [17]: 89.3%; viability, T/C [18]: 76.7%; viability, T/C [19]: 64.4%; viability, T/C [20]: 53.5%; viability, T/C (second compound 10 µM, first compound 0.01 µM): 102%; viability, T/C [21]: 103%; viability, T/C [22]: 84.5%; viability, T/C [23]: 71.7%; viability, T/C [24]: 55.5%; viability, T/C [25]: 44.6%"
CC1OCC2(CCN(c3cnc(Sc4ccnc(N)c4Cl)c(N)n3)CC2)C1N (stereo not given) + C=CC(=O)N1CCN(c2nc(=O)n(-c3c(C)ccnc3C(C)C)c3nc(-c4c(O)cccc4F)c(F)cc23)C(C)C1,> 10,> 10,> 10,> 10,> 10,102,86.4,82.5,79.1,77.2,98.8,85.5,78.3,79.9,77.5,96.3,99.3,86.3,82.9,75.2,"viability, T/C [26]: 63.6%; viability, T/C [27]: 59.8%; viability, T/C [28]: 65.6%; viability, T/C [16]: 104%; viability, T/C [17]: 92.4%; viability, T/C [18]: 81.4%; viability, T/C [19]: 81%; viability, T/C [20]: 71.6%; viability, T/C [29]: 65.6%; viability, T/C [21]: 94%; viability, T/C [22]: 92.2%; viability, T/C [23]: 77.9%; viability, T/C [24]: 66.3%; viability, T/C [25]: 61.8%; viability, T/C [30]: 49.6%"
CCNC(=O)CC1N=C(c2ccc(Cl)cc2)c2cc(OC)ccc2-n2c(C)nnc21 (stereo not given) + C=CC(=O)N1CCN(c2nc(=O)n(-c3c(C)ccnc3C(C)C)c3nc(-c4c(O)cccc4F)c(F)cc23)C(C)C1,> 10,> 10,> 10,> 10,> 10,100,95.8,88.1,86,74.7,99.9,99.5,84.5,82,71.1,104,104,87.3,86.8,75.5,"viability, T/C [26]: 57.4%; viability, T/C [27]: 58%; viability, T/C [28]: 64.7%; viability, T/C [16]: 104%; viability, T/C [17]: 94.9%; viability, T/C [18]: 88.4%; viability, T/C [19]: 85.1%; viability, T/C [20]: 67.9%; viability, T/C [29]: 59%; viability, T/C [21]: 102%; viability, T/C [22]: 99%; viability, T/C [23]: 84.6%; viability, T/C [24]: 71.6%; viability, T/C [25]: 73.9%; viability, T/C [30]: 60.8%"
Cn1nccc1Nc1nccc(-c2cc3c(s2)C(C)(C)N(CCN2CCOCC2)C3=O)n1 + C=CC(=O)N1CCN(c2nc(=O)n(-c3c(C)ccnc3C(C)C)c3nc(-c4c(O)cccc4F)c(F)cc23)C(C)C1,6.96,5.32,> 10,2.34,0.674,117,88,70.1,70.6,55.5,120,93.9,64.3,63.8,54.3,119,99.3,66,61.2,54.9,"viability, T/C [26]: 45.3%; viability, T/C [27]: 45%; viability, T/C [28]: 46.1%; viability, T/C [16]: 120%; viability, T/C [17]: 105%; viability, T/C [18]: 67.8%; viability, T/C [19]: 60.3%; viability, T/C [20]: 50.2%; viability, T/C [29]: 42.4%; viability, T/C [21]: 103%; viability, T/C [22]: 101%; viability, T/C [23]: 61.7%; viability, T/C [24]: 48.8%; viability, T/C [25]: 45.4%; viability, T/C [30]: 32.2%"
